Data: publication PMC6522510 (Nature Communications, 2019)
Structures can show the parent of a compound that is named as a salt. Where two headings read alike, the source gives them in different places.

Columns and labels:
Design in all cases: species or system AML cell lines (8); Primary HTS, single concentration about 10 uM, Cell Titer Glo viability; log10 luminescence, per cent inhibition relative to cycloheximide control
Settings in all cases: 72 h, relative to cycloheximide control, log10 luminescence, inhibitor
[1] = test system: CHRF288-11
[2] = test system: CMK
[3] = test system: CMS
[4] = test system: M07e
[5] = test system: ML-2
[6] = test system: MOLM-13
[7] = test system: MV4-11
[8] = test system: U937

Structure (SMILES)	CHRF288-11 %inh ([1]; CHRF288-11 %inh, 10 µM) [%]	CMK %inh ([2]; CMK %inh, 10 µM) [%]	CMS %inh ([3]; CMS %inh, 10 µM) [%]	M07e %inh ([4]; M07e %inh, 10 µM) [%]	ML-2 %inh ([5]; ML-2 %inh, 10 µM) [%]	MOLM-13 %inh ([6]; MOLM-13 %inh, 10 µM) [%]	MV4-11 %inh ([7]; MV4-11 %inh, 10 µM) [%]	U937 %inh ([8]; U937 %inh, 10 µM) [%]	CHRF288-11 %inh [1] [%]	CMK %inh [2] [%]	CMS %inh [3] [%]	M07e %inh [4] [%]	ML-2 %inh [5] [%]	MOLM-13 %inh [6] [%]	MV4-11 %inh [7] [%]	U937 %inh [8] [%]
OC[C@H]1O[C@@H](O[C@@H]2[C@@H](CO)OC(O)(CO)[C@H]2O)[C@H](O)[C@@H](O)[C@H]1O (mixture of isomers) [SJ000285579-3, LACTULOSE]	0.1599	-4.096	-1.064	2.568	-0.1648	2.867	0.8098	-0.7505								
OC[C@H]1O[C@@H](O[C@@H]2[C@@H](CO)OC(O)(CO)[C@H]2O)[C@H](O)[C@@H](O)[C@H]1O (mixture of isomers) [SJ000285579-4, LACTULOSE]	2.769	0.6173	-0.8505	8.809	-0.9858	5.87	2.037	1.171								
NC[C@H](CC(=O)O)c1ccc(Cl)cc1 (racemic) [SJ000285686-7, BACLOFEN | (R,S)-BACLOFEN | (±)-BACLOFEN | LIORESAL]									-1.195	21.33	7.511	-0.3712	2.059	8.873	2.346	5.766
CCOC(=O)C1=C(C)NC(C)=C(C(=O)OC)C1c1cccc(Cl)c1Cl (single isomer, unassigned) [SJ000287293-6, FELODIPINE]	40.78	32.28	3.783	5.04	0.03711	23.61	5.092	12.66								
CCOC(=O)C1=C(C)NC(C)=C(C(=O)OC)C1c1cccc(Cl)c1Cl (single isomer, unassigned) [SJ000287293-7, FELODIPINE]	33.72	36.03	-2.469	7.937	2.538	16.76	12.83	12.4								
C[C@]12CC[C@@H]3c4ccc(O)cc4C[C@@H](CCCCCCCCC[S+]([O-])CCCC(F)(F)C(F)(F)F)[C@H]3[C@@H]1CC[C@@H]2O (single isomer, unassigned) [SJ000288293-3, FULVESTRANT | FULVESTRANT| FASLODEX | FASLODEX (ICI 182,780)]	4.612	-2.659	2.454	3.741	2.01	-2.461	13.25	-0.5617								
C[C@]12CC[C@@H]3c4ccc(O)cc4C[C@@H](CCCCCCCCC[S+]([O-])CCCC(F)(F)C(F)(F)F)[C@H]3[C@@H]1CC[C@@H]2O (single isomer, unassigned) [SJ000288293-4, FULVESTRANT | FULVESTRANT| FASLODEX | FASLODEX (ICI 182,780)]	-3.752	-2.475	2.909	2.696	1.626	-1.784	6.552	-1.083								
O=[N+]([O-])c1ccc(Oc2ccc(Br)cc2)c(C(O)P(=O)(O)O)c1 (single isomer, unassigned) [SJ000312207-2, RWJ-60475]	1.479	0.9236	0.5647	-2.334	0.244	9.917	4.34	1.53								
O=[N+]([O-])c1ccc(Oc2ccc(Br)cc2)c(C(O)P(=O)(O)O)c1 (single isomer, unassigned) [SJ000312207-3, RWJ-60475]	-1.978	2.859	-0.822	1.458	4.625	10.73	2.215	3.171								
Cc1cc(NS(=O)(=O)c2ccc(N)cc2)no1 [SJ000285603-4, SULFAMETHOXAZOLE]									6.539	-0.9998	-0.6486	0.538		-2.87	0.1304	-2.098
CC(=O)N(O)CCCCCNC(=O)CCC(=O)N(O)CCCCCNC(=O)CCC(=O)N(O)CCCCCN [SJ000285725-4, DEFEROXAMINE MESYLATE]	11.08		42.04	6.608	7.19	17.22	2.029			16.85						
C[C@H]1O[C@@H](O[C@H]2[C@@H](O)C[C@H](O[C@H]3[C@@H](O)C[C@H](O[C@H]4CC[C@@]5(C)[C@H](CC[C@@H]6[C@@H]5C[C@@H](O)[C@]5(C)[C@@H](C7=CC(=O)OC7)CC[C@]65O)C4)O[C@@H]3C)O[C@@H]2C)C[C@H](O)[C@@H]1O [SJ000285739-7, DIGOXIN]	112.6		94.04		58.17	85.14	73.33	-15.97								
Cc1cnc(C(=O)NCCc2ccc(S(=O)(=O)NC(=O)NC3CCCCC3)cc2)cn1 [SJ000287188-5, GLIPIZIDE]									-3.512	3.258	1.05	3.86		17.27	-0.3606	0.1954
C[N+]1(C)CCC(OC(=O)C(O)(c2ccccc2)C2CCCC2)C1 (centres unmarked) [SJ000287387-2, GLYCOPYRROLATE]									7.948	-4.149	-3.738	3.68		6.707	0.8412	2.372
CN(CCOc1ccc(NS(C)(=O)=O)cc1)CCc1ccc(NS(C)(=O)=O)cc1 [SJ000555707-1, DOFETILIDE]									-0.9409	10.12		3.914	3.818	10.35	4.51	5.896
